Experimental data as given in patent publication EP0391180A2, “Peptide derivatives of amino acids having a renin-inhibiting effect” (F. HOFFMANN-LA ROCHE AG, priority 1989, dated 1990).

Target: T1, Human-Renin (Homo sapiens, UniProt P00797)
T1 sequence (P00797 67-406): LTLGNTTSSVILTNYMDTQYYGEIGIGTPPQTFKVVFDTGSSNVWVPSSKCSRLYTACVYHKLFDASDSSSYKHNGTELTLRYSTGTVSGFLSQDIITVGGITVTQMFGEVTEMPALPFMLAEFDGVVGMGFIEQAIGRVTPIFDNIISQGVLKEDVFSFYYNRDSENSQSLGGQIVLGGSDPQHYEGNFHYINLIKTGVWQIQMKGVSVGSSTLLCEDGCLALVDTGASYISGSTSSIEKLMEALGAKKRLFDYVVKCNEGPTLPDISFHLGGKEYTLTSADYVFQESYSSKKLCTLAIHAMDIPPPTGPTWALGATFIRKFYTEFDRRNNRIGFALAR
Assay: In vitro test with pure human renin (angiotensin I production from human tetradecapeptide renin substrate, measured by RIA)
Assay type: biochemical
Conditions: not given
Description: In vitro-Test mit reinem Human-Renin
Der Test wird in Eppendorf Röhrchen durchgeführt. Die Inkubationsmischung besteht aus (1) 100 µl Human-Renin in Puffer A (0,1M Natriumphosphatlösung, pH 7,4, enthaltend 0,1% Rinderserumalbumin, 0,1 % Natriumazid und 1 mM Aethylendiamintetraessigsäure), genügend für eine Renin-Aktivität von 2-3 ng Angiotensin I/ ml/Std.; (2) 145 µl Puffer A; (3) 30 µl von 10 µM humanem Tetradekapeptid-Reninsubstrat (hTD) in 10 mM Salzsäure; (4) 15 µl Dimethylsulfoxid mit bzw. ohne Hemmer und (5) 10 µl einer 0,03 molaren Lösung von Hydroxychinolinsulfat in Wasser.
Die Proben werden drei Stunden bei 37°C bzw. 4°C in Triplikaten inkubiert. 2 x 100 µl Proben pro Versuchsröhrchen werden dann verwendet, um die Produktion von Angiotensin I via RIA (standard radioimmunoassay; Clinical Assay solid phase kit) zu messen. Kreuzreaktivitäten der verwendeten Antikörper im RIA sind: Angiotensin I 100 %; Angiotensin II 0,0013 %; hTD (Angiotensin I-Val-Ile-His-Ser-OH) 0,09 %. Die Produktion von Angiotensin I wird durch die Differenz zwischen dem Versuch bei 37°C und demjenigen bei 4°C bestimmt.
Folgende Kontrollen werden mitgeführt: • (a) Inkubation von hTD-Proben ohne Renin und ohne Hemmer bei 37°C und 4°C. Die Differenz zwischen diesen beiden Werten ergibt den Grundwert der Angiotensin I-Produktion. • (b) Inkubation von hTD-Proben mit Renin, jedoch ohne Hemmer bei 37°C und 4°C. Die Differenz zwischen diesen Werten ergibt den Maximalwert der Angiotensin I-Produktion.
In jeder Probe wird von der ermittelten Angiotensin I-Produktion der Grundwert der Angiotensin I-Produktion abgezogen. Die Differenz zwischen dem Maximalwert und dem Grundwert ergibt den Wert der maximalen Substrathydrolyse (=100%) durch Renin.
Die Resultate werden als IC₅₀-Werte angegeben, welche diejenige Konzentration des Hemmers bezeichnen, bei welcher die enzymatische Aktivität um 50% gehemmt wird. Die IC₅₀-Werte werden aus einer linearen Regressionskurve aus einem logit-log plot ermittelt.

SMILES | IC50 [nM]
CC(C)(C)OC(=O)N1CCC[C@@H]1C(=O)N[C@@H](Cc1ccccc1)C(=O)N[C@@H](Cc1c[nH]cn1)C(=O)N[C@@H](CC1CCCCC1)C(O)CC1CCCCC1 (single isomer, unassigned) [F] | 1

Same assay, conditions: pure human renin, substrate hTD, pH 7,4, incubation 3 h at 37°C vs 4°C, angiotensin I by RIA; IC50 from logit-log plot; read-out: IC₅₀-Werte

SMILES | IC50 [nM]
C=C[C@H](CC)C[C@H](O)[C@H](CC1CCCCC1)NC(=O)[C@H](Cc1c[nH]cn1)NC(=O)[C@H](Cc1ccccc1)NC(=O)[C@H]1CCCN1C(=O)OC(C)(C)C [A, t-Butyl (R)-2-[[(S)-α-[[(S)-1-[[(1S,2S,4R)-1-(cyclohexylmethyl)-2-hydroxy-4-äthyl-5-hexenyl]carbamoyl]-2-imidazol-4-yläthyl]carbamoyl]phenäthyl]carbamoyl]-1-pyrrolidincarboxylat] | 0.2
CCC(F)(CC)C[C@H](O)[C@H](CC1CCCCC1)NC(=O)[C@H](Cc1c[nH]cn1)NC(=O)[C@@H](CC(=O)C(C)(C)C)Cc1ccccc1 [G, (S)-N-[(1S,2S)-1-(Cyclohexylmethyl)-4-äthyl-4-fluor-2-hydroxyhexyl]-α-[(R)-α-(3,3-dimethyl-2-oxobutyl)hydrocinnamamido]imidazol-4-propionamid] | 5
CC(C)(C)OC(=O)N[C@@H](Cc1ccccc1)C(=O)N[C@@H](Cc1c[nH]cn1)C(=O)N[C@@H](CC1CCCCC1)C(O)CC1CCCCC1 (single isomer, unassigned) [E] | 2.6
C=C[C@H](CC)C[C@H](O)[C@H](CC1CCCCC1)NC(=O)[C@H](Cc1cnc[nH]1)NC(=O)[C@H](Cc1ccccc1)CS(=O)(=O)C(C)(C)C [D, (S)-α-[(S)-α-[(t-Butylsulfonyl)methyl]hydrocinnamamido]-N-[(1S,2S,4R)-1-(cyclohexylmethyl)-4-äthyl-2-hydroxy-5-hexenyl]imidazol-5-propionamid] | 1
C=C[C@H](CC)C[C@H](O)[C@H](CC1CCCCC1)NC(=O)[C@H](Cc1c[nH]cn1)NC(=O)[C@@H](CC(=O)C(C)(C)C)Cc1ccccc1 [C, (S)-N-[(1S,2S,4R)-1-(Cyclohexylmethyl)-4-äthyl-2-hydroxy-5-hexenyl]-α-[(R)-α-(3,3-dimethyl-2-oxobutyl)hydrocinnamamido]imidazol-4-propionamid] | 4.2
CCC(CC)C[C@H](O)[C@H](CC1CCCCC1)NC(=O)[C@H](Cc1c[nH]cn1)NC(=O)[C@H](Cc1ccccc1)NC(=O)[C@H]1CCCN1C(=O)OC(C)(C)C [B, t-Butyl (R)-2-[[(S)-α-[[(S)-1-[[(1S,2S)-1-(cyclohexylmethyl)-2-hydroxy-4-äthylhexyl]carbamoyl]-2-imidazol-4-yläthyl]carbamoyl]phenäthyl]carbamoyl]-1-pyrrolidincarboxylat] | 1
